We go through one compound from BindingDB's records for PubMed 34138567 (National Clinical Research Center For Geriatrics, 2021).

Each structure is given as a SMILES string.

A short description of test [1]: Inhibition of PI3Kdelta in conA-stimulated primary human T cell proliferation incubated for 1 hr by CellTiter-glo luminescent assay. (In general: Cellular ATP, detected with luciferase, serves as a proxy for viable cell number.)
Test [2] is described as follows: Inhibition of PI3Kdelta in anti-FceRI-stimulated human Basophil cells degranulation incubated for 30 mins.

Regarding `C[C@H]1CC[C@@H](c2nc3cccc(Cl)c3c(=O)n2-c2cccc(F)c2)N1c1ncnc2[nH]cnc12`, the IC50 (usually the concentration that gives 50% inhibition) in test [1] was 21 nM; in test [2] it was 8.2 nM.
